In US20080118980A1, “Estrogen Enhancing Differentiation of Human Mesenchymal Stromal Cells and Adipose-derived Stromal Cells” (The Board of Trustees of the University of Illinois,, priority 2006, published 2008):

Experiments:
Type in all cases: cell-based
[1] = test system: rat bone MSC-based TE constructs; experiment: Osteogenic differentiation of rat bone MSC-based TE constructs with E2 (Example 4); details: 14 days; for calcium deposition: FIG. 9C
Experimental: TE constructs were created by seeding passage-1 MSCs on gelatin sponges (Gelfoam@, Pharmacia & Upjohn, Kalamazoo, Mich.). The sponge were trimmed into 4×4×4 mm^3 and pre-wet with DMEM medium for 1 hr. The sponges were transferred to MSC suspension with a cell density of 2×10^6 cells/ml under a slight vacuum created by 20 ml syringe, followed by incubation in 5% CO2 at 37° C. for two hours. Beginning the next day as day-0, TE constructs were respectively exposed to the osteogenic differentiation medium supplemented with different concentrations of E2 (10^−6M to 10^−12M). The osteogenic differentiation medium consists of basic medium supplemented with 100 nM dexamethasone, 10 mM β-glycerophosphate, and 0.05 mM ascorbic acid-2-phosphate. After two weeks of differentiation, constructs of each experimental group were collected and quantitatively measured for osteogenic differentiation.
TE constructs were immersed in 0.2 ml of 1% Triton-X100 and homogenized with sonication. The DNA concentration of cell lysate was measured fluorometrically using Hoechst dye 33258 (Bio-Rad, Hercules, Calif.). The fluorescent optical density of each sample was measured using a fluorometer having an excitation wavelength of 360 nm and an emission wavelength of 460 nm. The amount of DNA in each sample was determined by using a prepared standard curve. ALP and calcium content were measured by spectrophotometry with a calorimetric kit according to the manufacturers' instructions (Sigma, St. Louis, Mo.).

human ASCs = experiment: Osteogenic differentiation of human ASCs modulated by E2 (Example 1)
Source text: Human bone marrow MSCs were provided by the Center for Gene Therapy of Tulane University. The MSCs were isolated from bone marrow cells donated by a healthy adult volunteer. The passage-1 cells were recovered and expanded by culture in a basic medium composed of DMEM, 10% FBS and 1% antibiotic-antimycotic. Human ASCs were isolated from a healthy person with a lipo-aspirated surgery. The abdomen subcutaneous adipose tissue was finely minced and then digested with 0.075 wt % collagenase type I at 37° C. for 45 min. The cells were then collected by filtration with a cell strainer with pore size of 100 μm diameter. The ASCs were expanded in basic DMEM medium. Upon reaching 80-90% confluence of human MSCs and ASCs, the cells were trypsinized, counted, and subcultured at a density of 10^5 cells/100 mm dish. The cells used for study were passage-2. For osteogenic differentiation, the cells were seeded at a cell density of 10^4 cells/cm2 on 12-well plates and 100-mm petri dishes. Upon reaching 70% confluence, counting as day-0, the cells were exposed to osteogenic differentiation medium supplemented with either 10 nM or 10 pM E2. The osteogenic differentiation medium consisted of basic medium supplemented with 100 nM dexamethasone, 10 mM β-glycerophosphate, and 0.05 mM ascorbic acid-2-phosphate. At the defined time, the cells were collected and analyzed for osteogenic gene expression and differentiation potentials.
The cultured cells in 12-well plates were washed twice with PBS, suspended and lysed in 1% Triton-X100 solution. The collected cells were subsequently homogenized using sonication. The DNA content was determined by a fluorometric assay (Bio-Rad). ALP and calcium content were measured by spectrophotometry with a calorimetric kit according to the manufacturers' instructions (Sigma).
RNA was extracted from differentiated cells using TRizol reagent (Invitrogen). 5 μg of total RNA was converted to single stranded cDNA using a commercial cDNA synthesis kit. Aliquots of the cDNA were amplified with Ampli-Taq DNA polymerase for ALP, osteocalcin (OCN), core binding factor alpha1 (cbfa1), peroxisome proliferator activated receptors gamma (PPARγ)-2, estrogen receptors (ER) alpha (α) and beta (β), and housekeeping gene GAPDH. 40 cycles were used, each consisting of 45 sec of denaturation at 95° C., 45 sec of annealing at 58° C., and 1 min of polymerization at 72° C.

[2] = test system: human bone marrow mesenchymal stem cells (MSCs); experiment: Proliferation of human bone marrow MSCs in basic medium with E2 or E3 (MTS, Example 3)
Experimental: This study investigates the mitogenic effects of estrogen receptor ligands on human bone marrow MSCs that is not contacted with osteogenic or adipogenic medium. Purified human bone marrow mesenchymal stem cells (MSCs) were purchased commercially. MSCs were respectively exposed to basic medium (DMEM+10% FBS+1% antibiotics), and basic medium supplement with 10^−6 and 10^−9 M 17-β estradiol (E2) and estriol (E3) for approximately one week. Then, various cells were plated into 96-well plates in 500 cells/well and continued to be exposed to the media. After 4 days, cell densities were measured by MTS methods and compared to initial densities. FIG. 8 illustrates the increase of the number of MSCs after being treated with basic medium and basic medium supplemented with E2 or E3.

Question: With C[C@]12CC[C@@H]3c4ccc(O)cc4CC[C@H]3[C@@H]1CC[C@@H]2O [E2, 17-β estradiol] as the molecule, how does the “peak concentration of E2 to increase ALP activity” value ([1]; both male and female MSCs) read?
Answer: 10^−10 M

Question: And the calcium deposition ([1]; female MSC-derived constructs)?
Answer: does not appear to have similar effects

Question: And the calcium deposition ([1]; male MSC-derived constructs)?
Answer: may also improve

Question: What about the “ALP activities of constructs” value ([1]; male and female constructs, dose-dependent, FIG. 9B) of the same molecule?
Answer: increased

Question: What about the calcium content (human ASCs; FIG. 2F) of the same molecule?
Answer: significantly increased

Question: What about the ALP activities (human ASCs; after 14 days, FIG. 2E) of the same molecule?
Answer: significantly improved

Question: What about the “OCN expression (RT-PCR)” value (human ASCs; day 7, E2 10 nM) of the same molecule?
Answer: only densely expressed

Question: What about the “cbfa-1 expression (RT-PCR band)” value (human ASCs; day 7, vs differentiation without estrogen supplement) of the same molecule?
Answer: denser band

Question: And the “cell proliferation (amount of DNA) during osteogenesis” value (human ASCs; higher dose of E2, FIG. 2D)?
Answer: inhibits

Question: What about the “ALP and von Kossa staining” value (human ASCs; osteogenic differentiation medium supplemented with E2 (10 nM or 10 pM)) of the same molecule?
Answer: denser color

Question: And the “cell proliferation (MTS assay and cell counting)” value ([2]; 10^−6 and 10^−9 M, about one week then 4 days in 96-well plates, FIG. 8)?
Answer: greatly increased

Question: And the “differentiation capabilities (adipogenic and osteogenic) of modulated MSCs” value ([2]; vs controls)?
Answer: maintain their differentiation capabilities
